From ChEMBL document CHEMBL1201862, “PubChem BioAssay data set” (2004)
Calls of active or inactive are those of the source.

Columns and labels:
Cytochrome P450 2C19 = Cytochrome P450 2C19 (Homo sapiens, UniProt P33261); assay: Cytochrome panel assay with activity outcomes. Panel member name: p450-cyp2c19 Compounds with AC50 equal or less than 10 uM are considered active; type: functional
Cytochrome P450 2D6 = Cytochrome P450 2D6 (Homo sapiens, UniProt P10635);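 further: CYP2D6 member of a cytochrome P450 panel assay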
[1] = target: T1, RNA-binding protein pos-1 (Caenorhabditis elegans, UniProt G5EF15); assay: disruptors of C. elegans POS-1 RNA interaction – biochemical, fluorescence polarization, dose response (AID 1964);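 further: purified POS-1 fused to maltose binding protein made in E. coli; potency of compounds blocking POS-1 binding to fluorescent RNA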
T1 sequence (G5EF15 whole entry): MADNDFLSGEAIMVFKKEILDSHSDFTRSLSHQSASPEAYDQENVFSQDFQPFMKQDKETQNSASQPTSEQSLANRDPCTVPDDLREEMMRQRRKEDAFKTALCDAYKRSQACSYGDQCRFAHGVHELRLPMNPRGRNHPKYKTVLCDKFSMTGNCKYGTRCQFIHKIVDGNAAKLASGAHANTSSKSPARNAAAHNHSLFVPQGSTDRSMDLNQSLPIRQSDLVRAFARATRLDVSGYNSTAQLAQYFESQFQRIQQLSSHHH

[2] = target: T2, Zinc finger protein mex-5 (Caenorhabditis elegans, UniProt Q9XUB2); assay: potency of MEX-5 RNA-binding blockers – biochemical, C. elegans, fluorescence polarization, dose response (AID 1960)
T2 sequence (Q9XUB2 whole entry): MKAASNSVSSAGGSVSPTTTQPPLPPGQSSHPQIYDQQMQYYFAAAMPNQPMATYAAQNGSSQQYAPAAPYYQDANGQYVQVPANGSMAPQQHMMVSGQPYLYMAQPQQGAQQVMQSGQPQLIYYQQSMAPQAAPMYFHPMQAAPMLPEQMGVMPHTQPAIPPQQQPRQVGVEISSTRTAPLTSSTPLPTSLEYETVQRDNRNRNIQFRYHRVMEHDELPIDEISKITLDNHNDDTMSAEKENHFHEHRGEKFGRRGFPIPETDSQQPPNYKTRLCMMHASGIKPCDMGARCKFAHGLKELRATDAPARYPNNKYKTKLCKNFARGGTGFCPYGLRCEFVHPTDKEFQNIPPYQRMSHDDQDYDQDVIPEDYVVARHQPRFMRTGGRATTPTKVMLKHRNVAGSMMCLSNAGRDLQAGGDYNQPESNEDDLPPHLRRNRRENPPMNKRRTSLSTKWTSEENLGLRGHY

[3] = target: Intestinal-type alkaline phosphatase (Mus musculus, UniProt P24822); assay: PubChem AID 488874; type: functional
[4] = target: T3, Intestinal-type alkaline phosphatase (Homo sapiens, UniProt P09923); assay: human intestinal alkaline phosphatase activators, dose response, biochemical, luminescence, uHTS hits (AID 463120); type: functional
[5] = target: T3, Intestinal-type alkaline phosphatase; assay: activation of human intestinal alkaline phosphatase – biochemical, luminescent, uHTS hits, set 2, dose response (AID 488817); type: functional;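 further: potency of activators that raise enzyme activity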
[6] = target: T4, Alkaline phosphatase, tissue-nonspecific isozyme (Homo sapiens, UniProt P05186); assay: activation of tissue-nonspecific alkaline phosphatase – biochemical, TNAP isozyme, human IAP uHTS hits, selectivity assay for human IAP activator project, dose response (AID 488886); type: functional;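 further: potency of compounds raising TNAP activity as a selectivity check on IAP activators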
T4 sequence (P05186 whole entry): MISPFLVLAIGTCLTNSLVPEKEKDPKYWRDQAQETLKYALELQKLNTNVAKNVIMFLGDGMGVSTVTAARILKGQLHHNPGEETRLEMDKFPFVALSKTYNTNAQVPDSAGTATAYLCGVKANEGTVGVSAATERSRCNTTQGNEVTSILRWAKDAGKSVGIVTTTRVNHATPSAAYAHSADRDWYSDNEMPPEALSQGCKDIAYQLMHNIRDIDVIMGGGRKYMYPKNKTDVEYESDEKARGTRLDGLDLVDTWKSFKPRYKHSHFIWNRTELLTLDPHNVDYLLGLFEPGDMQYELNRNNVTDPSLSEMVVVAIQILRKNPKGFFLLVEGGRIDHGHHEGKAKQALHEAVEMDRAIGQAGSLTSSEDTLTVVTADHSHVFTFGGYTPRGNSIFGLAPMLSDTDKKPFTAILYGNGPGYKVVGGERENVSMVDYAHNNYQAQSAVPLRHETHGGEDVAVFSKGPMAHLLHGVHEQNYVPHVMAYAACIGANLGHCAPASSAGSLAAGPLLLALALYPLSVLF

[7] = target: T5, Mannose-6-phosphate isomerase (Homo sapiens, UniProt P34949); assay: Confirmation of compounds inhibiting phosphomannose isomerase (PMI) via a fluorescence intensity assay using a high concentration of mannose 6-phosphate. [Related pubchem assays (depositor defined):AID1209, AID1220, AID1545, AID1553, AID1620]
T5 sequence (P34949 whole entry): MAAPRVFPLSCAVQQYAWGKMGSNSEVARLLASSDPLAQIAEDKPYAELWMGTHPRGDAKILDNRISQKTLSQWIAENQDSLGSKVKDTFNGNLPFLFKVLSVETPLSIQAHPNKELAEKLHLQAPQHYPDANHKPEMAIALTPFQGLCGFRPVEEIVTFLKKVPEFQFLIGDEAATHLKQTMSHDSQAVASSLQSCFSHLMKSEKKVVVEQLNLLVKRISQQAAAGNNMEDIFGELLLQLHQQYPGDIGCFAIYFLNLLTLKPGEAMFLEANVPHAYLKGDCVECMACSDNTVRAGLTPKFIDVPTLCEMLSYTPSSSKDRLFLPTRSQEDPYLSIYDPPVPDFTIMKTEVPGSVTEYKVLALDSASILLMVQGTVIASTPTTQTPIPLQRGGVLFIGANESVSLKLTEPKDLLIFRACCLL

[8] = tested on: Streptococcus sp. 'group A'; assay: Streptococcus pyogenes SK(-)GAS viability under kanamycin – luminescence, BacTiterGlo, confirmation, counter-screen for streptokinase expression inhibitor project, dose response (AID 1900); type: functional, organism-based
Streptokinase A = target: T6, Streptokinase A (Streptococcus pyogenes serotype M1, UniProt P10520); assay: viability-normalized secreted streptokinase activity reduction – plasminogen activation absorbance, OD405, dose response (AID 1914); type: functional, Streptococcus pyogenes M1 GAS;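 further: secreted streptokinase activity via plasminogen activation per viability signal from cell pellet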
T6 sequence (P10520 whole entry): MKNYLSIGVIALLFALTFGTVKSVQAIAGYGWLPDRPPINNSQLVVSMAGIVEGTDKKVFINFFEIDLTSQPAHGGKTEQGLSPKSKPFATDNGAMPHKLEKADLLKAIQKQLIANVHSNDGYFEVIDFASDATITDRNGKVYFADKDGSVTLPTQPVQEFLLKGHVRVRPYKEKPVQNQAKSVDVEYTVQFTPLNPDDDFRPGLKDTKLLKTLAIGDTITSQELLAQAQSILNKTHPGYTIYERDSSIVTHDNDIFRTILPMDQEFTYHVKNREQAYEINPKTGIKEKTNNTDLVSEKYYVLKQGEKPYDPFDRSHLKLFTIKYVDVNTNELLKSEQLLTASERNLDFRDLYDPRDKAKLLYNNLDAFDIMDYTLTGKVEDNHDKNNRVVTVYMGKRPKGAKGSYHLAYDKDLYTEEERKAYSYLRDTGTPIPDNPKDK

[9] = Trypanosoma cruzi growth suppression in host cells – NIH3T3 host cells, beta-gal luminescence, confirmation (AID 2044); type: functional, cell-based;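 further: intracellular parasites grown in NIH/3T3 mouse fibroblasts as host cells; luminescent beta-galactosidase reporter signal from transgenic T. cruzi replicating inside host cells; inhibitors lower the luminescence signal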
[10] = viability of PTEN-deleted HCT116 cells – cell-based, HCT116 PTEN knockout, dose response (AID 1047); type: functional;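 further: HCT116 colon tumor cells with PTEN knocked out; cells exposed to compound for 60 hours before readout; potency for loss of cell viability measured by luminescence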
[11] = viability of HCT116 lacking mutant beta-catenin – cell-based, human colon tumor, dose response (AID 1045); type: functional;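 further: HCT116 colon tumor cells with beta catenin knocked out; cells exposed to compound for 60 hours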
Streptococcus = assay: GAS UMAA2166 growth inhibition – luminescence, BacTiterGlo, counter-screen for streptokinase expression inhibitor project, dose response (AID 1915); type: functional, organism-based;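 further: potency for reduction of bacterial viability or growth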
[12] = target: T5, Mannose-6-phosphate isomerase; assay: phosphomannose isomerase inhibition – biochemical, fluorescence intensity, confirmation (AID 1535)
[13] = target: DNA dC->dU-editing enzyme APOBEC-3A (Homo sapiens, UniProt P31941); assay: A3A deaminase inhibition for selectivity – biochemical, dose response (AID 504722); type: functional
Hexokinase = Hexokinase (Trypanosoma brucei, UniProt Q38C41); assay: Confirmation assay for inhibitors of Trypanosoma brucei hexokinase 1-Analogue-first series. [Related pubchem assays (depositor defined):AID1430, AID1632, AID2516, AID2560, AID2579, AID2600, AID449725, AID492951]; type: functional
[14] = target: Glucose-6-phosphate 1-dehydrogenase (Homo sapiens, UniProt P11413); assay: inhibition of Homo sapiens G6PD, dose series – biochemical, fluorescence, selectivity assay for P. falciparum G6PD inhibitor project, dose response (AID 504792); type: functional
[15] = THP-1 cell cytotoxicity, dose response, cytotoxicity control for non-replicating M. tuberculosis project (AID 489025); type: functional
[16] = target: Phosphoethanolamine/phosphocholine phosphatase (Homo sapiens, UniProt Q8TCT1); assay: SAR assay for compounds that inhibit PHOSPHO1. [Related pubchem assays (depositor defined):AID1545, AID1565, AID1574]
[17] = target: Eukaryotic translation initiation factor 4E (Mus musculus, UniProt P63073); assay: blockers of eIF4G binding by eIF4E – biochemical, TR-FRET, dose response (AID 855); type: functional;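 further: potency for disrupting eIF4E binding to eIF4GI seen as loss of FRET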
[18] = target: DNA dC->dU-editing enzyme APOBEC-3G (Homo sapiens, UniProt Q9HC16); assay: Dose Response confirmation of small molecule APOBEC3G DNA Deaminase Inhibitors via a fluorescence-based single-stranded DNA deaminase assay. [Related pubchem assays (depositor defined):AID493012, AID493028]; type: functional
[19] = Vero E6 cell cytotoxicity, dose response, cytotoxicity control for non-replicating M. tuberculosis project, secondary assay (AID 492998); type: functional, VeroE6; details: Vero C1008
cells = type: functional
[20] = target: Heat shock protein HSP 90-alpha (Homo sapiens, UniProt P07900); type: functional, organism-based
[21] = target: T7, Polyadenylate-binding protein 1 (Homo sapiens, UniProt P11940); assay: MLLE binding blockers, Cy5 peptide tracer – biochemical, fluorescence polarization, Cy5-PAM2 peptide, secondary, miRNA deadenylation inhibitor project, dose response (AID 602260); type: functional; details: read-out: IC50_Mean
[22] = target: T8, Mitochondrial peptide methionine sulfoxide reductase (Bos taurus, UniProt P54149); assay: Absorbance-based biochemical high throughput dose response assay for activators of Methionine sulfoxide reductase A (MsrA).; type: functional
T8 sequence (P54149 whole entry): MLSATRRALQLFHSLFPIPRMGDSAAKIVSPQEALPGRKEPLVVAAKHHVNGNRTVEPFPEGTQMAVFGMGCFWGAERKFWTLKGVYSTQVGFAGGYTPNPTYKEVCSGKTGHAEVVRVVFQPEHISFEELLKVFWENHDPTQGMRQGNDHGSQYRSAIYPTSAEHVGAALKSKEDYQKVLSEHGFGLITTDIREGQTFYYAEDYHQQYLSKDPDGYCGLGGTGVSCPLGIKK

[23] = target: T7, Polyadenylate-binding protein 1; assay: MLLE domain peptide-binding blockers, IC50 – biochemical, fluorescence polarization, FITC-PAM2 peptide, dose response (AID 602259); type: functional; details: read-out: IC50_Mean
[24] = Fluorescence-based cell-based high throughput dose response assay for inhibitors of the interaction of nucleotide-binding oligomerization domain containing 2 (NOD2) and the receptor-interacting serine-threonine kinase 2 (RIPK2).; type: functional; details: Homo sapiens
Beta Lactamase = Beta Lactamase (Pseudomonas aeruginosa, UniProt Q932Y6); assay: BLA reporter interference, concentration series – BLA reporter cells, FRET fluorescence, artefact control for NOD2-RIPK2 interaction inhibitor project, dose response (AID 651552); type: functional, cell-based
Sequence of Beta Lactamase (Q932Y6 whole entry): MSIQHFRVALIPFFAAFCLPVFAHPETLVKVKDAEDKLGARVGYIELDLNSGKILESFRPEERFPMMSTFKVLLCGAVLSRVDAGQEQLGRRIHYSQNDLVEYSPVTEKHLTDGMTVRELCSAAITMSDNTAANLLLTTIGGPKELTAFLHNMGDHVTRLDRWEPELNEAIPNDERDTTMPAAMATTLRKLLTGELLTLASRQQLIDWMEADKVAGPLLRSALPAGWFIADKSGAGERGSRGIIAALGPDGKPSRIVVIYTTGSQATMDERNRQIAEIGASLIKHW

T3 sequence (P09923 whole entry): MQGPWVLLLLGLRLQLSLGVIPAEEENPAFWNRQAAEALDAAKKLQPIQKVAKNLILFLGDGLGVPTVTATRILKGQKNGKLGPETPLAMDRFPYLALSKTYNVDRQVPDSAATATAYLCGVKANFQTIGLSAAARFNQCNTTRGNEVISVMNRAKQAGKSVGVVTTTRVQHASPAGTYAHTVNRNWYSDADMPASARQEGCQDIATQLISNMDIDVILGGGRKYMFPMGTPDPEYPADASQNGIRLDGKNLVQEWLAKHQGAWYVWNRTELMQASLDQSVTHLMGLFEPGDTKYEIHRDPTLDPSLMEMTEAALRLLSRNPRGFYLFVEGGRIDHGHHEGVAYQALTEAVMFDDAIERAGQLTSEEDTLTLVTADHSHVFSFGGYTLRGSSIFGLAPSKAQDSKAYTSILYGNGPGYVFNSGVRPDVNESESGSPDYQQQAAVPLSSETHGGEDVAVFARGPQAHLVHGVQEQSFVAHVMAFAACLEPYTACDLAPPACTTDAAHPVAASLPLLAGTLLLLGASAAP
T7 sequence (P11940 whole entry): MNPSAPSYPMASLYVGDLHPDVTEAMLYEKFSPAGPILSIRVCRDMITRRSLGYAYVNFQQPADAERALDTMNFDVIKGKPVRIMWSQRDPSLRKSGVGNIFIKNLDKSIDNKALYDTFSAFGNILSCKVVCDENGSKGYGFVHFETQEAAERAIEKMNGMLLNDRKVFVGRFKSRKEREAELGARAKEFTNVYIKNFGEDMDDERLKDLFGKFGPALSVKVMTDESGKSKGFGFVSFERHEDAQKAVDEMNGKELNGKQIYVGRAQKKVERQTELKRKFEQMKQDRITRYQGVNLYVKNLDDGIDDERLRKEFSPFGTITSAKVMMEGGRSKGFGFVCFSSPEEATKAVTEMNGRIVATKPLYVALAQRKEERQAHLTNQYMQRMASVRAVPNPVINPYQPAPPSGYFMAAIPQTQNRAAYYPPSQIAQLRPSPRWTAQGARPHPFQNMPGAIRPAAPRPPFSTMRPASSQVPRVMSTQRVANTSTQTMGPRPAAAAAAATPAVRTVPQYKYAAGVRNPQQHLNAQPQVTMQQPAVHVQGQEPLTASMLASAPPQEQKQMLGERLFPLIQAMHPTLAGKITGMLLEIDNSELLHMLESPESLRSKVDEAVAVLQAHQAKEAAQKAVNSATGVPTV
Sequence of Glucose-6-phosphate 1-dehydrogenase (P11413 whole entry): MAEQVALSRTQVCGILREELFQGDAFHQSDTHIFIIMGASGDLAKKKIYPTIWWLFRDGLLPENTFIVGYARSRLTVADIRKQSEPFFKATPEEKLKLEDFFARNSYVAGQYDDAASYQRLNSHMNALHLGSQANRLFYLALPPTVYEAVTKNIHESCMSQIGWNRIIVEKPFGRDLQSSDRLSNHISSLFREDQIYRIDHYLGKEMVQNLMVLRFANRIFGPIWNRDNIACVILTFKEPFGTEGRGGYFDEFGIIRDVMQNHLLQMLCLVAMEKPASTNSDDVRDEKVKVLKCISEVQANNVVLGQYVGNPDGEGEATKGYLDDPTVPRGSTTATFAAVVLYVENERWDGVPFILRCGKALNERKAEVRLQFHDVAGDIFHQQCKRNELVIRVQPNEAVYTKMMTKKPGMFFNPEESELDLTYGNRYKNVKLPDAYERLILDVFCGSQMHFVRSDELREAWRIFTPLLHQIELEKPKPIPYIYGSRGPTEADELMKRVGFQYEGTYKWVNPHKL
Sequence of Hexokinase (Q38C41 whole entry): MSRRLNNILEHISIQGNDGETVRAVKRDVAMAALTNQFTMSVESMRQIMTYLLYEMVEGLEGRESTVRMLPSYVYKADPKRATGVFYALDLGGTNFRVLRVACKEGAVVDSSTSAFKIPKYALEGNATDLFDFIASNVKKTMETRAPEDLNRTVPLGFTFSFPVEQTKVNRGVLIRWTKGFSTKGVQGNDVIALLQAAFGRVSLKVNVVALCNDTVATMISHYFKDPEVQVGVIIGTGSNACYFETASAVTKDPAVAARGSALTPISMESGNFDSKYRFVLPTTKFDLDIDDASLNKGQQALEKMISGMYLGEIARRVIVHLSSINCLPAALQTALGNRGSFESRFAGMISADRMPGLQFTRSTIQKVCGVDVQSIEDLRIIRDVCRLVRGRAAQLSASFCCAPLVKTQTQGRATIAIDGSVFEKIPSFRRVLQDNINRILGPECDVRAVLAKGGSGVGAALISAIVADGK
Sequence of Intestinal-type alkaline phosphatase (Mus musculus, UniProt P24822) (P24822 whole entry): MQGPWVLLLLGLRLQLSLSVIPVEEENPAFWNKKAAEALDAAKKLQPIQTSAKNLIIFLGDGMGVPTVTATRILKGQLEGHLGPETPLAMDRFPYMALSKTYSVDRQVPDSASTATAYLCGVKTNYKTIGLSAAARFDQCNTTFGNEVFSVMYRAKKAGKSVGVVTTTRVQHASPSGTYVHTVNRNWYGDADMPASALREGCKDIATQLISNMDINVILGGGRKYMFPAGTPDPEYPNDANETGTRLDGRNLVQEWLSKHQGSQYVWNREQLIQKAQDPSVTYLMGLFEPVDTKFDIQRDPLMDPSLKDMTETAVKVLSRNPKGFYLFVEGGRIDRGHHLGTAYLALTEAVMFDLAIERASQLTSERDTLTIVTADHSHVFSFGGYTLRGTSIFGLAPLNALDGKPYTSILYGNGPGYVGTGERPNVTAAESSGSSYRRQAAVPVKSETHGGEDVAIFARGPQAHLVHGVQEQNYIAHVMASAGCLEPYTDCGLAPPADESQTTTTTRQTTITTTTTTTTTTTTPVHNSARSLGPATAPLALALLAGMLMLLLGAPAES
Sequence of Cytochrome P450 2C19 (P33261 whole entry): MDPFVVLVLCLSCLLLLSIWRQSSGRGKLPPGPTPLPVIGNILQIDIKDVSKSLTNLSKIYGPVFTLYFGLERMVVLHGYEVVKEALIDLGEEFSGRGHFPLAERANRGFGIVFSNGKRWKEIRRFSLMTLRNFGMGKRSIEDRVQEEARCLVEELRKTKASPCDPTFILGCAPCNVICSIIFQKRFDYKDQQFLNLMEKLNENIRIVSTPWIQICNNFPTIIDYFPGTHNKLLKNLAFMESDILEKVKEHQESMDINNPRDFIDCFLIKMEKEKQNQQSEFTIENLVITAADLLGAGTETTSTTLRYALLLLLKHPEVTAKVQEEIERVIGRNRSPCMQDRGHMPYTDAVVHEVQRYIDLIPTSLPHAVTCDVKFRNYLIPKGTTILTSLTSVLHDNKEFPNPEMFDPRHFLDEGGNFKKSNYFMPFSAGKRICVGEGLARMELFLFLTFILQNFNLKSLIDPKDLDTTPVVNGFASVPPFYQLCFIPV
Sequence of DNA dC->dU-editing enzyme APOBEC-3G (Q9HC16 whole entry): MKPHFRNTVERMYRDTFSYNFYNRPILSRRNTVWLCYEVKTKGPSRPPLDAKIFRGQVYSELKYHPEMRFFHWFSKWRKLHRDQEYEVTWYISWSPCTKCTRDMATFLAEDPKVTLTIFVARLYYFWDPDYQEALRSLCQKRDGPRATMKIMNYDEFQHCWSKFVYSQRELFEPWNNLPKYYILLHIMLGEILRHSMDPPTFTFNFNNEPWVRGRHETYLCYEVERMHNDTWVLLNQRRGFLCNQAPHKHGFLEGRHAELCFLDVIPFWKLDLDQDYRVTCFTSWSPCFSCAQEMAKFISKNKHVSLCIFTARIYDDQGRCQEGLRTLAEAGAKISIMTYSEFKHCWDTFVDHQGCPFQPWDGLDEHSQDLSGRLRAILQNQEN
Sequence of Phosphoethanolamine/phosphocholine phosphatase (Q8TCT1 whole entry): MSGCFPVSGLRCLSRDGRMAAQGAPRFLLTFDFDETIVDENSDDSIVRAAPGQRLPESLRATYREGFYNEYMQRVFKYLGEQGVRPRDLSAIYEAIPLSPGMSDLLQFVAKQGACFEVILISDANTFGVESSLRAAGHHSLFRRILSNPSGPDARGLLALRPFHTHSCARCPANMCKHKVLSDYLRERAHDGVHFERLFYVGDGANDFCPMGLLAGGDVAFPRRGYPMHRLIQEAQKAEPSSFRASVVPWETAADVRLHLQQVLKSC
Sequence of Cytochrome P450 2D6 (P10635 whole entry, the tested form may be a part): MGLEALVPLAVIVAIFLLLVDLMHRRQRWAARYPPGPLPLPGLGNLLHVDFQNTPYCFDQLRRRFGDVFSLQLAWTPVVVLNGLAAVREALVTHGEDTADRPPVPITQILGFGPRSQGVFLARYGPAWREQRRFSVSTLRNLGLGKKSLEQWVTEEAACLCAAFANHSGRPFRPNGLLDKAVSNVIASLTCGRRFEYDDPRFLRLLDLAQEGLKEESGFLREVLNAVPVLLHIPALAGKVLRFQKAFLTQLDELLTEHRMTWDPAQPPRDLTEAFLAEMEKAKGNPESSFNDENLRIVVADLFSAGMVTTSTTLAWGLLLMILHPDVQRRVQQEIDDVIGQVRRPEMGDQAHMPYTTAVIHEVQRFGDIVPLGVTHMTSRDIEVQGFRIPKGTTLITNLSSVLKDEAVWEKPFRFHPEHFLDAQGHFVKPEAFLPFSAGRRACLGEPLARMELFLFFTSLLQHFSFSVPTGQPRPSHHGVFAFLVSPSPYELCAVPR
Sequence of Eukaryotic translation initiation factor 4E (P63073 whole entry): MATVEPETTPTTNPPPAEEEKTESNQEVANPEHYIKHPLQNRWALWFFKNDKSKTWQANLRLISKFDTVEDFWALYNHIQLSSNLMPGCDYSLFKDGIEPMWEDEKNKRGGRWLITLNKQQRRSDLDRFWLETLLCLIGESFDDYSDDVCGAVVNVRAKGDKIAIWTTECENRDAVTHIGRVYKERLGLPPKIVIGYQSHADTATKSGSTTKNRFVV

Cc1ccc(Cl)cc1-n1c(=O)cc(N2CC(C)OC(C)C2)[nH]c1=O (stereo unspecified)
AC50 (Cytochrome P450 2C19): inconclusive
AC50 (Cytochrome P450 2D6): inconclusive

CCOC(=O)c1cnc(-n2nc(C)cc2C)nc1NNc1nc(C)cc(C)n1
EC50 [1]: 65.5 µM (active)
EC50 [2]: > 300 µM (inconclusive)
IC50 [3]: 66 µM (active)
EC50 [4]: 8.43 µM (active)
EC50 [5]: 21.3 µM (active)
EC50 [6]: 21.4 µM (active)

O=c1c2ccccc2sn1-c1ccccc1
IC50 [7]: 21 µM (active)
EC50 [8]: 0.888 µM (active)
EC50 (Streptokinase A): > 150 µM (not active)
EC50 [9]: 0.227 µM (active)
EC50 [10]: 41.1 µM (active)
EC50 [11]: 22.6 µM (active)
EC50 (Streptococcus): 4.17 µM (active)
IC50 [12]: 6.65 µM (active)
IC50 [13]: > 100 µM (inactive)
IC50 (Hexokinase): 1.11 µM (active)
IC50 [14]: 8.87 µM (active)
CC50 [15]: 10.9 µM (active)
IC50 [16]: 0.941 µM (active)
IC50 [17]: 20.1 µM (active)
IC50 [18]: 6.4 µM (active)
CC50 [19]: 13.4 µM (active)
IC50 (cells): 15.7 µM (active)
AC50 [20]: 18.7 µM (active)
IC50 [21]: > 66 µM (inactive)
EC50 [22]: 79.3 µM (inactive)
IC50 [23]: > 66 µM (inactive)
IC50 [24]: 4 µM (active)
IC50 (Beta Lactamase): 16.6 µM (inactive)
